The values that follow come from US20110104805A1, “Pluripotent Stem Cells” (CENTOCOR ORTHO BIOTECH INC., priority 2009, published 2011).

In assay [1] the test system is AFD1 cells. As to the kind of experiment: Attachment / plating efficiency on surface modified plate 4 without feeder cells or adlayer. The assay is classed as cell-based. As to conditions: surface modified plate 4, MEF conditioned media. The protocol: The pluripotent stem cell line AFD1, was maintained in MEF conditioned media on Nunclon Delta™ plates treated with a 1:30 dilution of growth factor reduced MATRIGEL™ prior to study. Cells were dissociated from the surface for passage by 1 mg/ml dispase dissociation. AFD1 cells were then seeded onto untreated wells of surface modified plate 4 (6-well format). In parallel, AFD1 cells were also plated onto Nunclon Delta™ plates treated with 1:30 dilution of growth factor reduced MATRIGEL™ to provide as positive controls. In all treatments cells were maintained in MEF conditioned media. AFD1 cells seeded onto surface modified plate 4 did attach, however the attachment efficiency was much lower than on control plates (FIG. 11). […] Cells were thereafter maintained in a constant 10 μM Y-27632 concentration or a reduced 1 μM concentration of H1152-glycyl, respectively, with daily media change.

Assay [2] deals with AFD1 cells. Description: qRT-PCR gene expression after two passages on surface modified plate 4 with Rho kinase inhibitor. The assay is classed as cell-based. Particulars: AFD1 passaged twice on modified surface 4 versus control plates. The procedure: Cells were passaged twice on surface modified plate 4 in the presence of either Y-27632 or H1152-glycyl and were tested for the expression of genes associated with pluripotency by qRT-PCR (FIG. 12). Expression of genes associated with and required for pluripotency (OCT4, NANOG, SOX2, TERT, and CRIPTO/TDGF) was maintained in AFD1 cells grown on modified surface 4 versus cells grown on control plates. […] This may have been due to increased expression of NANOG, which inhibits differentiation by suppressing expression of extra-embryonic ectoderm or trophoblast associated genes. Additionally, this decrease in expression of extra-embryonic ectoderm or trophoblast associated genes could occur through differential adhesion and proliferation of cells more pluripotent, and less differentiated, on modified surface 4 versus control plates.

In the case of `Cc1cncc2cccc(S(=O)(=O)N3CCCN(C(=O)CN)C[C@@H]3C)c12.Cl.Cl` [Clone H1152-glycyl, (S)-(+)-4-Glycyl-2-methyl-1-[(4-methyl-5-isoquinolinyl)sulfonyl]hexahydro-1H-1,4-diazepine dihydrochloride], the “plating efficiency of the cells” value in assay [1] (3 μM for the first 24 hours in culture) is “significantly increased”. For the same molecule, in assay [2], the “Expression of genes associated with and required for pluripotency (OCT4, NANOG, SOX2, TERT, and CRIPTO/TDGF)” value is reported as “maintained”; the “relative expression of AFP, HAND2, and GATA2 (spontaneous differentiation genes)” value is given as “decreased significantly”.

In the case of `C[C@@H](N)[C@H]1CC[C@H](C(=O)Nc2ccncc2)CC1` [Clone Y-27632], the “plating efficiency of the cells” value in assay [1] (10 μM for the first 24 hours in culture) is listed as “significantly increased”. In assay [2], the “Expression of genes associated with and required for pluripotency (OCT4, NANOG, SOX2, TERT, and CRIPTO/TDGF)” value is given as “maintained”; the “relative expression of AFP, HAND2, and GATA2 (spontaneous differentiation genes)” value was “decreased significantly”.
